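All cell lines were grown in 96-well plates and treated with compound for 48 hours. Abbreviation: GI50, concentration required for 50% inhibition of growth.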 Calls of active or inactive are those of the source. Cut-off read from the data, not from the text of the source: active = GI50 up to about 1.1 µM and inactive = higher.
Columns and labels:
Experiment in all cases: NCI tumour cell line growth inhibition, 48 h
NCI-H522 = system: NCI-H522
TK-10 = system: TK-10
DMS-273 = system: DMS-273
786-0 = system: 786-0
UACC-257 = system: UACC-257
LXFL 529 = system: LXFL 529
A498 = system: A498
OVCAR-3 = system: OVCAR-3
HOP-18 = system: HOP-18
EKVX = system: EKVX
SF-295 = system: SF-295
HT-29 = system: HT-29
SNB-19 = system: SNB-19
HCC 2998 = system: HCC 2998
M14 = system: M14
OVCAR-5 = system: OVCAR-5
RXF 393 = system: RXF 393
OVCAR-4 = system: OVCAR-4
SW-620 = system: SW-620
LOX IMVI = system: LOX IMVI
IGROV-1 = system: IGROV-1
MOLT-4 = system: MOLT-4
NCI-H23 = system: NCI-H23
SNB-78 = system: SNB-78
XF498 = system: XF498
KM-20L2 = system: KM-20L2
COLO 205 = system: COLO 205
DMS-114 = system: DMS-114
KM12 = system: KM12
SK-MEL-28 = system: SK-MEL-28
SR = system: SR
Malme-3M = system: Malme-3M
K562 = system: K562
CCRF-CEM = system: CCRF-CEM
UO-31 = system: UO-31
SF-539 = system: SF-539
SNB-75 = system: SNB-75
NCI-H226 = system: NCI-H226
M19-MEL = system: M19-MEL
U-251 = system: U-251
HL-60 = system: HL-60
A549 = system: A549
HOP-62 = system: HOP-62
HCT-15 = system: HCT-15
HCT-116 = system: HCT-116
SK-OV-3 = system: SK-OV-3
DLD-1 = system: DLD-1
SK-MEL-5 = system: SK-MEL-5
SK-MEL-2 = system: SK-MEL-2
NCI-H460 = system: NCI-H460
ACHN = system: ACHN
OVCAR-8 = system: OVCAR-8
RPMI-8226 = system: RPMI-8226
SN12C = system: SN12C
UACC-62 = system: UACC-62

[O-][Cl+3]([O-])([O-])[O-].c1ccc(C[P+]2(c3ccccc3)CCCCC2)cc1
GI50 (NCI-H522): 34.5 µM (inactive) | GI50 (TK-10): > 100 µM (inactive) | GI50 (DMS-273): 79.3 µM (inactive) | GI50 (786-0): > 100 µM (inactive) | GI50 (UACC-257): 34.4 µM (inactive) | GI50 (LXFL 529): 38.3 µM (inactive) | GI50 (A498): > 100 µM (inactive) | GI50 (OVCAR-3): 73.1 µM (inactive) | GI50 (HOP-18): > 100 µM (inactive) | GI50 (EKVX): > 100 µM (inactive) | GI50 (SF-295): > 100 µM (inactive) | GI50 (HT-29): 72.8 µM (inactive) | GI50 (SNB-19): > 100 µM (inactive) | GI50 (HCC 2998): 70.8 µM (inactive) | GI50 (M14): > 100 µM (inactive) | GI50 (OVCAR-5): > 100 µM (inactive) | GI50 (RXF 393): > 100 µM (inactive) | GI50 (OVCAR-4): > 100 µM (inactive) | GI50 (SW-620): > 100 µM (inactive) | GI50 (LOX IMVI): 85.1 µM (inactive) | GI50 (IGROV-1): > 100 µM (inactive) | GI50 (MOLT-4): > 100 µM (inactive) | GI50 (NCI-H23): > 100 µM (inactive) | GI50 (SNB-78): > 100 µM (inactive) | GI50 (XF498): 33.6 µM (inactive) | GI50 (KM-20L2): > 100 µM (inactive) | GI50 (COLO 205): 34 µM (inactive) | GI50 (DMS-114): 48.5 µM (inactive) | GI50 (KM12): > 100 µM (inactive) | GI50 (SK-MEL-28): > 100 µM (inactive) | GI50 (SR): 86.7 µM (inactive) | GI50 (Malme-3M): > 100 µM (inactive) | GI50 (K562): > 100 µM (inactive) | GI50 (CCRF-CEM): > 100 µM (inactive) | GI50 (UO-31): > 100 µM (inactive) | GI50 (SF-539): > 100 µM (inactive) | GI50 (SNB-75): 88.9 µM (inactive) | GI50 (NCI-H226): > 100 µM (inactive) | GI50 (M19-MEL): 28.8 µM (inactive) | GI50 (U-251): 38.4 µM (inactive) | GI50 (HL-60): 29.4 µM (inactive) | GI50 (A549): > 100 µM (inactive) | GI50 (HOP-62): > 100 µM (inactive) | GI50 (HCT-15): > 100 µM | GI50 (HCT-116): 23.7 µM (inactive) | GI50 (SK-OV-3): > 100 µM (inactive) | GI50 (DLD-1): > 100 µM (inactive) | GI50 (SK-MEL-5): 28.7 µM (inactive) | GI50 (SK-MEL-2): 95.5 µM (inactive) | GI50 (NCI-H460): > 100 µM (inactive) | GI50 (ACHN): > 100 µM (inactive) | GI50 (OVCAR-8): > 100 µM (inactive) | GI50 (RPMI-8226): 34.7 µM (inactive) | GI50 (SN12C): > 100 µM (inactive) | GI50 (UACC-62): 61.7 µM (inactive)
